The record followed here is ChEMBL document CHEMBL5620412, “Discovery of benzofuran-2-carboxylic acid derivatives as lymphoid tyrosine phosphatase (LYP) inhibitors for cancer immunotherapy” (Eur J Med Chem, 2023).

This test has as its target T1, Tyrosine-protein phosphatase non-receptor type 22 (Homo sapiens, UniProt Q9Y2R2).
T1 sequence (Q9Y2R2 whole entry): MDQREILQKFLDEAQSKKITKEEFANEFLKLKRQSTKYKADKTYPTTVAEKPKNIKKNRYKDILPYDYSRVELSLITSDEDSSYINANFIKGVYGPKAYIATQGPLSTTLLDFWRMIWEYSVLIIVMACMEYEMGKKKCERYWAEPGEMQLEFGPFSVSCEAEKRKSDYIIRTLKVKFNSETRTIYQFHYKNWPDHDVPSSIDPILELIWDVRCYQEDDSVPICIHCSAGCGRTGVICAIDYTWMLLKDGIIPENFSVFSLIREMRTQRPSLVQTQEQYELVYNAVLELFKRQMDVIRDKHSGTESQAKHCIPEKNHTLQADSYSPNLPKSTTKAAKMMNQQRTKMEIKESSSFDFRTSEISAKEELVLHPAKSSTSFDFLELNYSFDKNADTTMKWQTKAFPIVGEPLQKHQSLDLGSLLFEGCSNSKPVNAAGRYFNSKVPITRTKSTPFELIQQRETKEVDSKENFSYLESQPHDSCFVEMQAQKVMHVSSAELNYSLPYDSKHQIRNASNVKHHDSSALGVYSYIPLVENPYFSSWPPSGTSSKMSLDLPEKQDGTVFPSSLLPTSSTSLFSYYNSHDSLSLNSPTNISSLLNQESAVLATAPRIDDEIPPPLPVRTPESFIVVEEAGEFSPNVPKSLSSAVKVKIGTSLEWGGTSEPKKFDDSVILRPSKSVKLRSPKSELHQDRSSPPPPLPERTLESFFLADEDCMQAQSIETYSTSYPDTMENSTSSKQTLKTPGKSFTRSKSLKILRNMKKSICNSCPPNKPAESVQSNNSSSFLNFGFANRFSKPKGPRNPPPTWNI
In words: Inhibition of N-terminal His-tagged LYP catalytic domain (1 to 294 residues) (unknown origin) expressed in Escherichia coli BL21 (DE3) cells using pNPP as substrate by absorbance based plate reader analysis.

Take `CCCCCCNc1ccc(S(=O)(=O)N(Cc2ccc(-c3ccccc3)cc2)c2ccc3oc(C(=O)O)cc3c2)cc1[N+](=O)[O-]`: 5.56 µM corresponded to half-maximal inhibition (IC50). With `O=C(O)c1cc2cc(N(Cc3ccccc3)S(=O)(=O)c3ccc(NCCOc4ccccc4)c([N+](=O)[O-])c3)ccc2o1` the figure was 10.3 µM; with `O=C(O)c1cc2cc(N(Cc3ccc(-c4ccccc4)cc3)S(=O)(=O)c3ccc(-c4cccs4)cc3)ccc2o1`, 8.87 µM; with `O=C(O)c1cc2cc(N(Cc3ccc(-c4ccccc4)cc3)S(=O)(=O)c3ccc(-c4ccccc4)cc3)ccc2o1`, 5.07 µM. With `CN(c1ccc2oc(C(=O)O)cc2c1)S(=O)(=O)c1ccc(NCCN2CCOCC2)c([N+](=O)[O-])c1` the figure was over 20 µM; with `CN(c1ccc2oc(C(=O)O)cc2c1)S(=O)(=O)c1ccc(-c2ccccc2)cc1`, over 20 µM; with `O=C(O)c1cc2cc(N(Cc3ccc(-c4cccc(Cl)c4Cl)cc3)S(=O)(=O)c3ccc(Cl)c([N+](=O)[O-])c3)ccc2o1`, 5.91 µM. With `CC(C)CN(c1ccc2oc(C(=O)O)cc2c1)S(=O)(=O)c1ccc(Cl)c([N+](=O)[O-])c1` the figure was over 20 µM. In the case of `O=C(O)c1cc2cc(NS(=O)(=O)c3ccc(Cl)c([N+](=O)[O-])c3)ccc2o1`, the IC50 (as a rule, the concentration at which inhibition is half-maximal) is over 20 µM. The same measure for `O=C(O)c1cc2cc(N(Cc3ccc(-c4ccccc4)cc3)S(=O)(=O)c3ccccc3Cl)ccc2o1`: 15.1 µM; for `O=C(O)c1cc2cc(N(Cc3ccc(-c4ccccc4)cc3)S(=O)(=O)c3ccc(Cl)nc3)ccc2o1`: 7.74 µM. In the case of `O=C(O)c1cc2cc(N(Cc3ccc(-c4ccccc4)cc3)S(=O)(=O)c3ccc(Cl)cc3)ccc2o1`, the IC50 stood at 9.04 µM.

As to `CN(c1ccc2oc(C(=O)O)cc2c1)S(=O)(=O)c1ccc(Cl)cc1`, the IC50 was over 20 µM.

On to `O=C(O)c1cc2cc(N(Cc3ccc(-c4ccco4)cc3)S(=O)(=O)c3ccc(-c4ccccc4)cc3)ccc2o1`, for which the IC50 worked out at 7.25 µM. The same measure for `O=C(O)c1cc2cc(N(Cc3ccc(-c4ccccc4)cc3)S(=O)(=O)c3cc(Cl)c(F)cc3F)ccc2o1`: 18.7 µM.

Turning to `O=C(O)c1cc2cc(N(Cc3ccc(-c4ccccc4)cc3)S(=O)(=O)c3ccc(Cl)c([N+](=O)[O-])c3)ccc2o1`, the IC50 turned out to be 9.34 µM. On to `COc1ccc(-c2ccc(CN(c3ccc4oc(C(=O)O)cc4c3)S(=O)(=O)c3ccc(-c4ccccc4)cc3)cc2)cc1`, for which half-maximal inhibition (IC50) was put at 5.47 µM. `CN(c1ccc2oc(C(=O)O)cc2c1)S(=O)(=O)c1ccc(Cl)c([N+](=O)[O-])c1` gave an IC50 of over 20 µM. In turn, `CCCCCCNc1ccc(S(=O)(=O)N(Cc2ccccc2)c2ccc3oc(C(=O)O)cc3c2)cc1[N+](=O)[O-]` returned an IC50 of 5.03 µM.

Turning to `O=C(O)c1cc2cc(N(Cc3ccccc3)S(=O)(=O)c3ccc(Cl)c([N+](=O)[O-])c3)ccc2o1`, the IC50 is over 20 µM. The same measure for `O=C(O)c1cc2cc(NS(=O)(=O)c3ccc(-c4ccccc4)cc3)ccc2o1`: over 20 µM. The molecule `O=C(O)c1cc2cc(N(Cc3ccccc3)S(=O)(=O)c3ccc(-c4ccccc4)cc3)ccc2o1` displayed an IC50 of over 20 µM. `O=C(O)c1cc2cc(N(Cc3ccc(-c4ccc(Cl)cc4)cc3)S(=O)(=O)c3ccc(-c4ccccc4)cc3)ccc2o1` had an IC50 of 4.36 µM.

`O=C(O)c1cc2cc(N(Cc3ccc(-c4ccccc4)cc3)S(=O)(=O)c3ccc(Br)cc3)ccc2o1` registered an IC50 of 7.87 µM.

Regarding `O=C(O)c1cc2cc(N(Cc3ccc(-c4ccccc4)cc3)S(=O)(=O)c3cccc(Cl)c3)ccc2o1`, the IC50 was over 20 µM. With `O=C(O)c1cc2cc(NS(=O)(=O)c3ccc(Cl)cc3)ccc2o1` the figure was over 20 µM; with `O=C(O)c1cc2cc(N(Cc3ccc(Oc4ccccc4)cc3)S(=O)(=O)c3ccc(Cl)c([N+](=O)[O-])c3)ccc2o1`, 5.67 µM. Regarding `O=C(O)c1cc2cc(N(Cc3cccc(Br)c3)S(=O)(=O)c3ccc(NCCOc4ccccc4)c([N+](=O)[O-])c3)ccc2o1`, 6.7 µM corresponded to half-maximal inhibition (IC50).

As to `O=C(O)c1cc2cc(N(Cc3ccc(-c4ccc(Cl)cc4)cc3)S(=O)(=O)c3ccc(Cl)c([N+](=O)[O-])c3)ccc2o1`, inhibition was half-maximal at 6.78 µM (IC50).

On to `CC(C)CN(c1ccc2oc(C(=O)O)cc2c1)S(=O)(=O)c1ccc(-c2ccccc2)cc1`, for which the IC50 is over 20 µM. With `CC(C)CN(c1ccc2oc(C(=O)O)cc2c1)S(=O)(=O)c1ccc(Cl)cc1` the figure was over 20 µM.

Take `O=C(O)c1cc2cc(N(Cc3ccccc3)S(=O)(=O)c3ccc(Cl)cc3)ccc2o1`: the IC50 is over 20 µM.

In the case of `O=C(O)c1cc2cc(N(Cc3ccc(Oc4ccccc4)cc3)S(=O)(=O)c3ccc(-c4ccccc4)cc3)ccc2o1`, half-maximal inhibition (IC50) required 10.7 µM. The same measure for `O=C(O)c1cc2cc(N(Cc3ccc(-c4ccccc4)cc3)S(=O)(=O)c3ccc(O)c([N+](=O)[O-])c3)ccc2o1`: 18.7 µM.
